Laboratory results reported in ChEMBL document CHEMBL1201862, “PubChem BioAssay data set” (2004).
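Exposure lasted 48 hours, with cells grown in 96-well plates and compounds tested at five concentrations. GI50: concentration for 50% inhibition of growth.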 Calls of active or inactive are those of the source. Rule as the data show it: active = GI50 up to about 1.1 µM and inactive = higher.

What was measured:
Test in all cases: NCI tumour cell line growth inhibition, 48 h
DMS-114 = test system: DMS-114
DLD-1 = test system: DLD-1
HOP-18 = test system: HOP-18
DMS-273 = test system: DMS-273
KM-20L2 = test system: KM-20L2
SNB-78 = test system: SNB-78
LXFL 529 = test system: LXFL 529
M19-MEL = test system: M19-MEL
RXF 631 = test system: RXF 631

Measured: GI50

O=c1cc(O)ccn1C1C=C(CO)C(O)C1O (stereo not drawn)
inactive: DMS-114 > 625 µM | DLD-1 > 625 µM | HOP-18 > 625 µM | DMS-273 > 625 µM | KM-20L2 > 625 µM | SNB-78 > 625 µM

N#C/C(=C\c1ccc(C(O)P(=O)(O)O)cc1)C(N)=O (stereo not drawn)
inactive: DMS-114 17.2 µM | DLD-1 > 100 µM | HOP-18 > 100 µM | DMS-273 > 100 µM | LXFL 529 > 100 µM | M19-MEL > 100 µM | RXF 631 > 100 µM | KM-20L2 > 100 µM | SNB-78 > 100 µM

COc1cc[n+](C)cc1
inactive: DMS-114 > 100 µM | DLD-1 > 100 µM | HOP-18 > 100 µM | DMS-273 > 100 µM | M19-MEL > 100 µM | KM-20L2 > 100 µM | SNB-78 > 100 µM

Cc1c(/C=N/NC(=O)c2ccccc2O)c(=O)n(-c2ccccc2)n1C
inactive: DMS-114 > 100 µM | DLD-1 > 100 µM | HOP-18 > 100 µM | DMS-273 58.5 µM | LXFL 529 > 100 µM | M19-MEL > 100 µM | KM-20L2 > 100 µM | SNB-78 > 100 µM

CC(=O)C(/N=N\C1CCC(S(=O)(=O)NB2N=CS2)CC1)C(=O)Nc1ccccc1C (stereo not drawn)
inactive: DMS-114 11.9 µM | DLD-1 16.9 µM | HOP-18 29.3 µM | DMS-273 20.6 µM | LXFL 529 14.2 µM | M19-MEL 17.6 µM | KM-20L2 15.9 µM | SNB-78 23.6 µM
